Test results from paper PMC8198049, “Synthesis and Evaluation of the Tetracyclic Ring-System of Isocryptolepine and Regioisomers for Antimalarial, Antiproliferative and Antimicrobial Activities” (Molecules, 2021).
Values after ≈ are worked out from the molar mass of the structure shown. Structures can show the parent of a compound that is named as a salt. Where two headings read alike, the source gives them in different places.

Key:
[1] = Cytotoxicity assay (resazurin-based viability); assay type: cell-based; conditions: human, HEK293 cells, mean ± standard deviation, two separate experiments
Description: Fluorescence was measured using an EnSight plate reader (PerkinElmer, Waltham, MA, USA).

[2] = tested on: MDA-MB-231 (human breast adenocarcinoma); test: Antiproliferative assay (resazurin); assay type: cell-based; conditions: for IC50: Homo sapiens, MDA-MB-231, 72 h compound incubation, mean ± sem, two separate experiments; for % at 80 µM (printed in MDA-MB-231 IC50 column): MDA-MB-231, 80 µM
Description: (§1) Compounds tested in the antiproliferative assays were tested in 11 dilution points (0.02 µM–40 µM or 0.04 µM–80 µM). […] HCT116 cells were maintained in McCoy’s 5A media (Life Technologies, CA, USA), MDA-MB-231 cells were cultured in DMEM media (Life Technologies) with 10 mM HEPES (Life Technologies), whilst PC-3 cells were maintained in RPMI media (Life Technologies). All media were supplemented with 10% heat-inactivated fetal bovine serum (Australian source; Corning, CA, USA) and all cells were incubated at 37 °C in a humidified incubator with 5% CO2. Cells were seeded in 384-well plates (Greiner Bio-One, NC, USA) using the respective complete media. After 24 h cell seeding, compounds were added and antiproliferative activity was determined using the resazurin assay after 72 h compound incubation. Briefly, cells were incubated with 60 µM resazurin (Cayman, MI, USA) for 6 h at 37 °C and fluorescence signals were measured using a microplate reader (EnSight, PerkinElmer, Waltham, MA, USA).

[3] = tested on: HCT116 (human colon cancer); test: Antiproliferative assay (resazurin); assay type: cell-based; conditions: for IC50: Homo sapiens, HCT-116, 72 h compound incubation, mean ± sem, two separate experiments
Description: as §1

[4] = tested on: PC-3 (human prostate cancer); test: Antiproliferative assay (resazurin); assay type: cell-based; conditions: for IC50: Homo sapiens, 72 h compound incubation, mean ± sem, two separate experiments; for % at 40 µM (PC-3): PC-3, 40 µM; for % at 80 µM (PC-3): PC-3, 80 µM
Description: as §1

[5] = tested on: Plasmodium falciparum 3D7 strain; test: Antiplasmodial imaging assay; assay type: cell-based; conditions: P. falciparum 3D7, 72 h, mean ± standard deviation, two separate experiments; for IC50: Plasmodium falciparum
Description: (§2) Compounds tested in the antiproliferative assays were tested in 11 dilution points (0.02 µM–40 µM or 0.04 µM–80 µM).
(§3) Antiplasmodial activity was determined as previously described by Duffy and Avery. […] After incubation, plates were stained with 4’,6-diamidino-2-phenylindole (DAPI) in a permeabilization buffer for 5 h at rt in the dark. Plates were imaged on the Opera confocal microplate image reader (PerkinElmer).

[6] = Antiplasmodial imaging assay; assay type: cell-based, Plasmodium falciparum; conditions: human (HEK293) and Plasmodium falciparum (3D7)
Description: as §2, §3

[7] = tested on: E. faecalis (ATCC 29122); test: Bacterial growth inhibition assay; assay type: cell-based, Enterococcus faecialis; conditions: Enterococcus faecalis, ATCC29122
Description: (§4) The prepared samples were tested for in vitro antimicrobial activity against E. faecalis, E. coli, P. aeruginosa, S. aureus, Streptococcus agalactiae and S. epidermis using gentamycin as a reference compound.
(§5) To determine and quantify antimicrobial activity, a bacteria growth inhibition assay in liquid media was executed. Compounds 2–3, 4, 8–10, 13–14, 16, 18, and 20 were tested against Staphylococcus aureus (ATCC 25923), Escherichia coli (ATCC 259233), Enterococcus faecialis (ATCC 29122), Pseudomonas aeruginosa (ATCC 27853) and Streptococcus agalactiae (ATCC 12386); all strains from LGC Standards (Teddington, UK). S. aureus, E. coli, and P. aeruginosa were grown in Muller Hinton broth (275730, Becton, Franklin Lakes, NJ, USA). E. faecalis and S. agalactiae were cultured in brain hearth infusion broth (53286, Sigma, St Louise, MO, USA). Fresh bacterial colonies were transferred in the respective medium and incubated at 37 °C overnight. The bacterial cultures were diluted to a culture density representing the log phase and µL/well were pipetted into a 96-well microtiter plate (734–2097, NunclonTM, Thermo Scientific, Waltham, MA, USA). The final cell density was 1500–15.000 colony forming units/well. The compound was diluted in 2% (v/v) DMSO in ddH2O, providing a final assay concentration of 50% of the prepared sample, since 50 µL of sample in DMSO/water were added to 50 µL bacterial culture. After adding the samples to the plates, they were incubated overnight at 37 °C and the growth was determined by measuring the optical density at λ = 600 nm (OD600) with a 1420 Multilabel Counter VICTOR3TM (Perkin Elmer, Waltham, MA, USA). A water sample was used as a reference control, growth medium without bacteria was used as a negative control and dilution series of gentamycin (A2712, Merck, Darmstadt, DE) from 32 to 0.01 µg/mL was used as positive control and visually inspected for bacterial growth. The positive control was used as a system suitability test and the results of the antimicrobial assay were only considered valid when positive control was passed. The final concentration of DMSO in the assays was ≤2% (v/v) and was known to have no effect in the tested bacteria. The data was processed using GraphPad Prism 8.

[8] = tested on: S. aureus (ATCC 25923); test: Bacterial growth inhibition assay; assay type: cell-based, Staphylococcus aureus; conditions: Staphylococcus aureus, ATCC25923
Description: as §4, §5

[9] = tested on: S. epidermis (ATCC 35984); test: Biofilm formation inhibition assay; assay type: cell-based, Staphylococcus epidermidis; conditions: inhibition of biofilm formation
Description: as §4
For testing the inhibition of biofilm formation, the biofilm-producing Staphylococcus epidermidis (ATCC 35984) was grown in Tryptic Soy Broth (TSB, 105459, Merck, Kenilworth, NJ, USA) overnight at 37 °C. The overnight culture was diluted in fresh medium with 1% glucose (D9434, Sigma) before being transferred to a 96-well microtiter plate; 50 µL/well were incubated overnight with 50 µL of the test compound dissolved in 2% (v/v) DMSO aq. added in duplicates. The bacterial culture was removed from the plate and the plate was washed with tap water. The biofilm was fixed at 65 °C for 1 h before 70 µL 0.1% crystal violet (115940, Millipore, Burlington, MA, USA) was added to the wells for 10 min of incubation and 70 µL of 70% ethanol was then added to each well and the plate incubated on a shaker for 5–10 min. Biofilm formation inhibition was assessed by the presence of violet color and measured at […] absorbance using a 1420 Multilabel Counter VICTOR3TM; 50 µL of a non-biofilm forming Staphylococcus haemolyticus (clinical isolate 8-7A, University Hospital of North Norway Tromsø, Norway) mixed in 50 µL autoclaved Milli-Q water was used as a control; 50 µL S. epidermidis mixed in 50 µL autoclaved Milli-Q water was used as the control for biofilm formation; and 50 µL TSB with 50 µL autoclaved Milli-Q water was used as a medium blank control.

[10] = tested on: HCT116, MDA-MB-231 and PC-3; test: Antiproliferative assay, whole panel of cancer cell lines; assay type: cell-based, human
Description: as §1

[11] = tested on: Streptococcus agalactiae (ATCC 12386); test: Bacterial growth inhibition assay; assay type: cell-based; conditions: ATCC12386
Description: as §4, §5

[12] = HEK293 cells versus Plasmodium falciparum 3D7 culture, HEK293 vs 3D7, read-out: SI (selectivity index = cytotoxicity in HEK293/activity in 3D7)

melting point [°C] | IC50 [2] [µM] | IC50 [3] [µM] | IC50 [4] [µM] | IC50 [5] [µM] | Structure (SMILES) | IC50 at 72 h [1] [µM] | selectivity ratio at 72 h [6, 12] | also measured
198 | 0.998 ± 0.3 | 0.742 ± 0.011 | 2.44 ± 0.094 | 1.318 ± 0.005 | CCn1cc2c3ccccc3nc-2c2ccccc21 [Compound 3b, 5-Ethyl-5H-indolo[3,2-c]quinoline] | 3.08 ± 0.049 | 2.3 | 
 | 3.06 ± 0.467 | 1.24 ± 0.08 | 1.3 ± 0.051 | 1.2 ± 0.032 | C=CCn1cc2c3ccccc3nc-2c2ccccc21 [Compound 3c, 5-Allyl-5H-indolo[3,2-c]quinoline] | 3.15 ± 0.04 | 2.6 | 
 | 0.594 ± 0.14 | 0.721 ± 0.027 | 1.63 ± 0.173 | 0.548 ± 0.003 | c1ccc2c(c1)Nc1ccnc3cccc-2c13 [Compound 4a, 7H-pyrido[4,3,2-gh]phenanthridine] | 2.83 ± 0.092 | 5.2 | MIC [7]: 100 µM (≈ 21.8 µg/mL); MIC [8]: 100 µM (≈ 21.8 µg/mL)
182 to 183 | 0.36 ± 0.051 | 0.444 ± 0.052 | 2.57 ± 0.114 | 1.698 ± 0.005 | CN1C=Cc2nc3ccccc3c3cccc1c23 [Compound 8a, 4-Methyl-4H-pyrido[4,3,2-gh]phenanthridine] | 7.41 ± 0.207 | 4.4 | MIC [7]: 75 µM (≈ 17.4 µg/mL); MIC [8]: 75 µM (≈ 17.4 µg/mL)
256 to 257 |  |  |  |  | Fc1ccc2[nH]c3ccc4ncccc4c3c2c1 [Compound 9b, 10-Fluoro-7H-pyrido[2,3-c]carbazole] |  |  | MBIC [9]: 100 µM

The next lines start with the molecule.

Structure (SMILES) | melting point [°C] | IC50 [2] [µM] | IC50 [3] [µM] | IC50 [4] [µM] | IC50 [5] [µM] | IC50 at 72 h [1] [µM] | selectivity ratio at 72 h [6, 12] | also measured
C[n+]1cccc2c3c(ccc21)[nH]c1ccccc13 (as salt: hydroiodid) [Compound 10, 4-Methyl-7H-pyrido[2,3-c]carbazolium Iodide] | 284 to 286 |  |  |  |  |  |  | 
C[n+]1cccc2c3[nH]c4ccccc4c3ccc21 (as salt: hydroiodid) [Compound 21, 4-Methyl-11H-pyrido[3,2-a]carbazolium Iodide] | 279 to 280 |  |  |  |  |  |  | 
CCN(CC)CCCC(C)Nc1ccnc2cc(Cl)ccc12 (stereo not drawn) [Chloroquine, chloroquine, reference compound] |  |  |  |  |  | > 4 |  | 
C[n+]1cccc2c3c(ccc21)[nH]c1ccccc13 [Compound 10, 4-Methyl-7H-pyrido[2,3-c]carbazolium Iodide] |  |  |  |  | 0.128 ± 0.002 |  | 214 | % at 40 µM (printed in MDA-MB-231 IC50 column) ([2]; MDA-MB-231, 40 µM): 24% at 40 µM; % at 40 µM (printed in HCT116 IC50 column) ([3]; HCT116, 40 µM): 38% at 40 µM; % at 40 µM (PC-3) [4]: 36% at 40 µM; activity against the panel of cancer cell lines [10]: no activity
c1ccc2nc3[nH]c4ccccc4c3cc2c1 [Compound 13, 6H-Indolo[2,3-b]quinoline] |  |  |  |  |  |  |  | 3D7 IC50 [5]: no antiplasmodial inhibition; activity against the panel of cancer cell lines [10]: inactive
c1ccc2c(c1)ncc1c3ccccc3[nH]c21 [Compound 14, 11H-indolo[3,2-c]quinoline] |  |  | 3.57 ± 0.309 |  | 0.977 ± 0.011 | 18.46 ± 0.183 | 18.9 | % at 80 µM (printed in MDA-MB-231 IC50 column) [2]: 36% at 80 µM ^e; % at 80 µM (PC-3) [4]: 30% at 80 µM ^f; activity against the panel of cancer cell lines [10]: poor activity
c1ccc2c(c1)[nH]c1c3cccnc3ccc21 [Compound 16, 11H-pyrido[3,2-a] carbazole] |  |  |  |  |  |  |  | % at 80 µM (printed in MDA-MB-231 IC50 column) [2]: 80% at 80 µM; % at 80 µM (printed in HCT116 IC50 column) ([3]; HCT116, 80 µM): 82% at 80 µM; 3D7 IC50 ([5]; listed as 15): little to no activity
c1cnc2c(c1)ccc1c3ccccc3[nH]c12 [Compound 18, 11H-Pyrido[2,3-a]carbazole] | 164 |  |  |  |  |  |  | 
c1cnc2c(c1)ccc1[nH]c3ccccc3c12 [Compound 20, 7H-Pyrido[3,2-c]carbazole] |  | 16.4 | 17 |  | 2.41 ± 0.042 |  |  | % at 40 µM (PC-3) [4]: 47% at 40 µM
C[n+]1cccc2c3[nH]c4ccccc4c3ccc21 [Compound 21, 4-Methyl-11H-pyrido[3,2-a]carbazolium Iodide] |  |  |  |  | 0.38 ± 0.0005 |  |  | activity against the panel of cancer cell lines [10]: no activity
C[C@H]1[C@@H](O)O[C@@H]2O[C@@]3(C)CC[C@H]4[C@H](C)CC[C@@H]1[C@@]24OO3 [DHA, dihydroartemisinin, reference compound] |  |  |  |  | 0.001 ± 7e-05 |  | 74 | 
COc1cccc2c1C(=O)c1c(O)c3c(c(O)c1C2=O)C[C@@](O)(C(=O)CO)C[C@@H]3O[C@H]1C[C@H](N)[C@H](O)[C@H](C)O1 [Doxorubicin, reference compound] |  | 0.59 | 0.15 | 0.83 |  |  |  | 
Cn1c2nc3ccccc3c-2cc2ccccc21 [Neocryptolepine (2), Neocryptolepine] |  | 10.4 | 6.22 ± 0.09 |  | 7.249 ± 0.006 | > 20 | > 2.8 | % at 80 µM (PC-3) [4]: 27% at 80 µM; MIC [11]: 100 µM (≈ 23.2 µg/mL)
COc1ccc(C[C@H](N)C(=O)N[C@H]2[C@@H](O)[C@H](n3cnc4c(N(C)C)ncnc43)O[C@@H]2CO)cc1 [Puromycin, puromycin, reference compound] |  | 0.3 | 0.085 | 0.27 | 0.093 ± 0.002 | 0.003 ± 0.003 |  | selectivity ratio at 72 h [6]: 0.03
